Series [1] concerns TK6 cells. The experiment in a line: Mitotic disturbance assay. The class given is cell-based, human. The conditions noted are these: 6 h, without S9; CBG 30 µM, CBD 15 µM, CBC 15 µM, CBDV 40 µM, CBN 15 µM; vs solvent control. As for the experimental part: The cells were treated for 6 h with CBG 30 µM, CBD 15 µM, CBC 15 µM, CBDV 40 µM, and CBN 15 µM. The positive control was vincristine sulphate 0.0121 µM, and the solvent control was DMSO. For the experiments with or without the S9 mix (final concentration 0.25%), TK6 cells were treated with either CBDV 40 µM or vincristine sulphate 10 ng/mL for 6 h. DMSO with or without S9 mix was used as control. Further procedure was as described for micronucleus experiments, except with direct harvest after cannabinoid treatment without the incubation period with cytochalasin B. Two slides were evaluated with a Nikon Eclipse 55i fluorescent microscope for each experimental condition. The independent experiments were conducted three times.
The cells were counted in categories apoptosis, interphase, prophase, metaphase, anaphase-telophase, disturbed metaphase, and disturbed anaphase-telophase in 1000 cells. The mitotic index was calculated as a sum of the number of cells in prophase, metaphase, anaphase-telophase, disturbed metaphase, and disturbed anaphase-telophase in 1000 cells. Disturbed metaphase and disturbed anaphase-telophase were defined as deviating from the usual appearance of mitoses. Disturbed mitoses were assessed in 100 mitotic cells per slide.

Series [2] relates to human lymphoblastoid TK6 cells. The experiment in a line: Kinetochore analysis of micronuclei. The format is cell-based. To be noted: 4 h. As for the experimental part:
For kinetochore analysis, cells were treated for 4 h with CBG 30 µM, CBD 15 µM, CBC 15 µM, CBDV 40 µM, and CBN 15 µM. The positive controls were MMS 40 µM, and vincristine sulphate 0.0121 µM; the solvent control was DMSO. After 4 h of treatment, the culture medium was renewed, and cells were exposed for 24 h to the cytokinesis inhibitor cytochalasin B (3 μg/mL). Then, cells were harvested, and slides were prepared with cytospin centrifugation. The cells were fixed in ice-cold methanol for 2 h. Kinetochores were stained overnight with undiluted primary anti-centromere antibody at 37 °C followed by 1:20 diluted FITC-conjugated secondary antibody at 37 °C for 2 h. Nuclei were counterstained with Hoechst 33,258 (5 µg/mL, 3 min). The experiment was performed one time. Per compound, 200 micronuclei were evaluated for kinetochore signal presence (Fig. 3). The evaluation was performed with a Keyence BZ-X800 microscope. The slides used in kinetochore evaluation were also evaluated for the number of induced micronuclei as described in the above paragraph cytokinesis‑block micronucleus assay.

Series [3] relates to TK6 cells. The experiment in a line: Tubulin visualization. The format is cell-based, human. The conditions noted are these: 6 h; CBG 30 µM, CBD 15 µM, CBC 15 µM, CBN 15 µM; visually compared to control, not quantified. The procedure:
For tubulin visualization, cells were treated with CBG 30 µM, CBD 15 µM, CBC 15 µM, CBDV 40 µM, and CBN 15 µM. The positive control was vincristine sulphate 0.0121 µM, and the solvent control was DMSO. Cells were treated for 6 h and then harvested. Slides were prepared with cytospin centrifugation. The cells were fixed in ice-cold methanol for 2 h. Following fixation, cells were permeabilized with 0.1% Tween20 in 1 × phosphate-buffered saline (PBS) for 5 min. Next, the anti-α-tubulin antibody was applied in 1:50 dilution. Antibody was diluted with 5% FCS in 1 × PBS. The antibody was incubated in a humid chamber at 4 °C for 24 h. Afterwards, the antibody was removed by washing slides twice with 0.5% Tween20 in 1 × PBS for 5 min. Nuclei were counterstained with Hoechst 33,258 (5 µg/mL, 3 min). The visualization was performed with a Keyence BZ-X800 microscope.

On the set-up of series [4]: method as in Taylor et al. [2018]. To be noted: oral solution of CBD, healthy adults, ref Taylor et al. [2018], cited from earlier work.
Series [5] deals with human buccal cell line TR146. Details: method as in Russo et al. ([2019]). The conditions noted are these: ref Russo et al. ([2019]), cited from earlier work.
Series [6] has as its system human hepatoma cells. Details: method as in Russo et al. ([2019]). To be noted: 3 h of treatment, ref Russo et al. ([2019]); cited from earlier work.
Series [7] has as its system human lymphoblastoid TK6 cells. Details: method as in Henderson et al. ([2023]). The conditions noted are these: TK6, with and without metabolic activation 4 h, and 27 h without metabolic activation; ref Henderson et al. ([2023]); cited from earlier work.
The subject of series [8] is bone marrow or liver of rats. Details: method as in European Medicine Agency (EMA) ([2019]). To be noted: bone marrow or liver of rats after CBD treatment; ref European Medicine Agency (EMA) ([2019]); cited from earlier work.
The test system of series [9] is bone marrow of mice. Details: method as in Zimmerman and Raj ([1980]). The conditions noted are these: ref Zimmerman and Raj ([1980]); cited from earlier work.
The test system of series [10] is human gastric cancer, Sertoli and Leydig cells. Details: method as in Zhang et al. [2019]; Li et al. [2022], [2023]. The conditions noted are these: 24 h of treatment; upregulated p53, reduced CDK2 and cyclin E; ref Zhang et al. [2019]; Li et al. [2022], [2023]; cited from earlier work.
The test system of series [11] is human lymphoblastoid TK6 cells. Put plainly: Cytokinesis-block micronucleus (CBMN) assay.

Where two headings read alike, the source gives them in different places.

Take `C=C(C)[C@@H]1CCC(C)=C[C@H]1c1c(O)cc(CCCCC)cc1O` [CBD, cannabidiol]: the Mitotic index result in series [1] is “significantly decreased the mitotic index”. Moreover, the “Kinetochore (+) MNi, %” value in series [2] (of 200 micronuclei, CBG 30 µM, CBD 15 µM, CBC 15 µM, CBDV 40 µM, CBN 15 µM, MMS 40 µM, vincristine 0.0121 µM, one experiment) was found to be 47%. The “Kinetochore (+) induced MNi” value in series [2] (treatment – control (basal level of micronuclei subtracted), same concentrations) is 63.7%. Moreover, the “Multipolar and monopolar tubulin aggregation” value in series [3] was “observed more frequently”. Also, the “Mean plasma Cmax following a high-fat meal” value in [4] (high-fat meal) was 1628 ng/mL. For the same compound, the Cmax in series [4] (high-fat meal, read-out: Mean plasma Cmax following a high-fat meal) was 5.2 µM; in [4] (read-out: Mean plasma Cmax), 1.1 µM. The “Mean plasma Cmax” value in series [4] is 335.4 ng/mL. In addition, in [5] (TR146, after 3 and 24 h), the “DNA damage (comet assay)” value is reported as “damaged DNA”. In addition, in series [5] (TR146, with liver enzymes), the “Genotoxic properties with addition of liver enzymes (comet assay)” value is reported as “increased the genotoxic properties”. In addition, the Micronucleus induction entry is “significant induction of micronuclei” in series [6] and “significant induction of micronuclei” in series [11] (4 h treatment, without metabolic activation, at least one concentration, vs solvent control). Moreover, the Micronucleus results in series [7] is listed as “negative micronucleus results”. For the same compound, in series [8], the “Micronucleus and comet assay in vivo” value was “negative results”. Further, the “Micronuclei in bone marrow in vivo” value in series [9] is listed as “induction of micronuclei”. In addition, the Cell cycle effect result in series [10] is recorded as “G1 phase cell cycle arrest”. The “BMDL (10th percentile)” value in series [11] (10th percentile of BMD50 estimation, 4 h, micronucleus data) is 2.1 µM. Further, the “4 h BMD50” value in series [11] (50% increased relative genotoxicity vs controls, from micronucleus data, 4 h treatment, without S9, Bayesian BMD analysis) was 8.7 µM. In series [11] (90th percentile of BMD50 estimation, 4 h, micronucleus data), the “BMDU (90th percentile)” value was 21.1 µM. For the same compound, the “Number of micronuclei with S9 mix vs without” value in series [11] (4 h, CBG 30 µM, CBD 15 µM, CBC 15 µM, CBDV 40 µM, CBN 15 µM, 0.25% S9 mix) is on record as “significant reduction in the number of micronuclei”.

The values above are taken from article PMC11402852, “Genotoxicity of selected cannabinoids in human lymphoblastoid TK6 cells” (Archives of Toxicology, 2024).
